In PubChem BioAssay (NCI):
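Five compound concentrations were applied to cells in 96-well plates for 48 hours; endpoints were derived by simple linear interpolation of the resulting dose-response curve. TGI: concentration producing complete growth inhibition.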

Tests used:
Experiment in all cases: growth of human tumour cells (NCI), 48 h
786-0 renal = tested on: 786-0 renal
A498 renal = tested on: A498 renal
A549 NSCLC = tested on: A549 NSCLC
ACHN renal = tested on: ACHN renal
BT-549 breast = tested on: BT-549 breast
CAKI-1 renal = tested on: CAKI-1 renal
CCRF-CEM leukemia = tested on: CCRF-CEM leukemia
COLO 205 colon = tested on: COLO 205 colon
DU-145 prostate = tested on: DU-145 prostate
EKVX NSCLC = tested on: EKVX NSCLC
HCC-2998 colon = tested on: HCC-2998 colon
HCT-116 colon = tested on: HCT-116 colon
HCT-15 colon = tested on: HCT-15 colon
HL-60(TB) leukemia = tested on: HL-60(TB) leukemia
HOP-62 NSCLC = tested on: HOP-62 NSCLC
HOP-92 NSCLC = tested on: HOP-92 NSCLC
HS 578T breast = tested on: HS 578T breast
HT29 colon = tested on: HT29 colon
IGROV1 ovarian = tested on: IGROV1 ovarian
K-562 leukemia = tested on: K-562 leukemia
KM12 colon = tested on: KM12 colon
LOX IMVI melanoma = tested on: LOX IMVI melanoma
M14 melanoma = tested on: M14 melanoma
MALME-3M melanoma = tested on: MALME-3M melanoma
MCF7 breast = tested on: MCF7 breast
MDA-MB-231 breast = tested on: MDA-MB-231 breast
MDA-MB-435 = tested on: MDA-MB-435
MDA-N = tested on: MDA-N
MOLT-4 leukemia = tested on: MOLT-4 leukemia
NCI-H226 lung = tested on: NCI-H226 lung
NCI-H23 lung = tested on: NCI-H23 lung
NCI-H460 lung = tested on: NCI-H460 lung
NCI-H522 lung = tested on: NCI-H522 lung
NCI/ADR-RES ovarian = tested on: NCI/ADR-RES ovarian
OVCAR-3 ovarian = tested on: OVCAR-3 ovarian
OVCAR-5 ovarian = tested on: OVCAR-5 ovarian
OVCAR-8 ovarian = tested on: OVCAR-8 ovarian
PC-3 prostate = tested on: PC-3 prostate
RPMI-8226 leukemia = tested on: RPMI-8226 leukemia
SF-268 CNS = tested on: SF-268 CNS
SF-295 CNS = tested on: SF-295 CNS
SF-539 CNS = tested on: SF-539 CNS
SK-MEL-2 melanoma = tested on: SK-MEL-2 melanoma
SK-MEL-28 melanoma = tested on: SK-MEL-28 melanoma
SK-MEL-5 melanoma = tested on: SK-MEL-5 melanoma
SK-OV-3 ovarian = tested on: SK-OV-3 ovarian
SN12C renal = tested on: SN12C renal
SNB-19 CNS = tested on: SNB-19 CNS
SNB-75 CNS = tested on: SNB-75 CNS
SW-620 colon = tested on: SW-620 colon
T-47D breast = tested on: T-47D breast
TK-10 renal = tested on: TK-10 renal
U251 CNS = tested on: U251 CNS
UACC-257 melanoma = tested on: UACC-257 melanoma
UACC-62 melanoma = tested on: UACC-62 melanoma
UO-31 renal = tested on: UO-31 renal
OVCAR-4 ovarian = tested on: OVCAR-4 ovarian

Structure (SMILES): CNC(=O)CNC(=O)CCC(=O)N(C)C
- TGI (786-0 renal): > 100 µM
- TGI (A498 renal): > 100 µM
- TGI (A549 NSCLC): > 100 µM
- TGI (ACHN renal): > 100 µM
- TGI (BT-549 breast): > 100 µM
- TGI (CAKI-1 renal): > 100 µM
- TGI (CCRF-CEM leukemia): > 100 µM
- TGI (COLO 205 colon): > 100 µM
- TGI (DU-145 prostate): > 100 µM
- TGI (EKVX NSCLC): > 100 µM
- TGI (HCC-2998 colon): > 100 µM
- TGI (HCT-116 colon): > 100 µM
- TGI (HCT-15 colon): > 100 µM
- TGI (HL-60(TB) leukemia): > 100 µM
- TGI (HOP-62 NSCLC): > 100 µM
- TGI (HOP-92 NSCLC): > 100 µM
- TGI (HS 578T breast): > 100 µM
- TGI (HT29 colon): > 100 µM
- TGI (IGROV1 ovarian): > 100 µM
- TGI (K-562 leukemia): > 100 µM
- TGI (KM12 colon): > 100 µM
- TGI (LOX IMVI melanoma): > 100 µM
- TGI (M14 melanoma): > 100 µM
- TGI (MALME-3M melanoma): > 100 µM
- TGI (MCF7 breast): > 100 µM
- TGI (MDA-MB-231 breast): > 100 µM
- TGI (MDA-MB-435): > 100 µM
- TGI (MDA-N): > 100 µM
- TGI (MOLT-4 leukemia): > 100 µM
- TGI (NCI-H226 lung): > 100 µM
- TGI (NCI-H23 lung): > 100 µM
- TGI (NCI-H460 lung): > 100 µM
- TGI (NCI-H522 lung): > 100 µM
- TGI (NCI/ADR-RES ovarian): > 100 µM
- TGI (OVCAR-3 ovarian): > 100 µM
- TGI (OVCAR-5 ovarian): > 100 µM
- TGI (OVCAR-8 ovarian): > 100 µM
- TGI (PC-3 prostate): > 100 µM
- TGI (RPMI-8226 leukemia): > 100 µM
- TGI (SF-268 CNS): > 100 µM
- TGI (SF-295 CNS): > 100 µM
- TGI (SF-539 CNS): > 100 µM
- TGI (SK-MEL-2 melanoma): > 100 µM
- TGI (SK-MEL-28 melanoma): > 100 µM
- TGI (SK-MEL-5 melanoma): > 100 µM
- TGI (SK-OV-3 ovarian): > 100 µM
- TGI (SN12C renal): > 100 µM
- TGI (SNB-19 CNS): > 100 µM
- TGI (SNB-75 CNS): > 100 µM
- TGI (SW-620 colon): > 100 µM
- TGI (T-47D breast): > 100 µM
- TGI (TK-10 renal): > 100 µM
- TGI (U251 CNS): > 100 µM
- TGI (UACC-257 melanoma): > 100 µM
- TGI (UACC-62 melanoma): > 100 µM
- TGI (UO-31 renal): > 100 µM

Structure (SMILES): CC(=O)O/C(=C(/C#N)C(=O)O)C1C(C(=O)O)C(c2ccccc2[N+](=O)[O-])C=C(c2ccco2)N1c1ccncc1 (stereo not drawn)
- TGI (786-0 renal): 6.62 µM
- TGI (A498 renal): 25 µM
- TGI (A549 NSCLC): 26.7 µM
- TGI (ACHN renal): 4.5 µM
- TGI (BT-549 breast): 16.3 µM
- TGI (CAKI-1 renal): 14.1 µM
- TGI (CCRF-CEM leukemia): > 100 µM
- TGI (COLO 205 colon): 7.82 µM
- TGI (DU-145 prostate): 21.4 µM
- TGI (EKVX NSCLC): 22.1 µM
- TGI (HCC-2998 colon): 9.45 µM
- TGI (HCT-116 colon): 3.06 µM
- TGI (HCT-15 colon): 4.83 µM
- TGI (HL-60(TB) leukemia): > 100 µM
- TGI (HOP-62 NSCLC): 21.6 µM
- TGI (HOP-92 NSCLC): 35.1 µM
- TGI (HS 578T breast): 42 µM
- TGI (HT29 colon): 3.16 µM
- TGI (IGROV1 ovarian): 3.29 µM
- TGI (K-562 leukemia): > 100 µM
- TGI (KM12 colon): 3.14 µM
- TGI (LOX IMVI melanoma): 5.78 µM
- TGI (M14 melanoma): 9.33 µM
- TGI (MALME-3M melanoma): 23 µM
- TGI (MCF7 breast): 4.38 µM
- TGI (MDA-MB-231 breast): 14.6 µM
- TGI (MDA-MB-435): 15.7 µM
- TGI (MDA-N): 7.26 µM
- TGI (MOLT-4 leukemia): 14.4 µM
- TGI (NCI-H226 lung): 18.9 µM
- TGI (NCI-H23 lung): 12.7 µM
- TGI (NCI-H460 lung): 19.3 µM
- TGI (NCI-H522 lung): 11.3 µM
- TGI (NCI/ADR-RES ovarian): 36.6 µM
- TGI (OVCAR-3 ovarian): 8.07 µM
- TGI (OVCAR-4 ovarian): 37.4 µM
- TGI (OVCAR-5 ovarian): 27.4 µM
- TGI (OVCAR-8 ovarian): 14.6 µM
- TGI (PC-3 prostate): 18.4 µM
- TGI (RPMI-8226 leukemia): 4.46 µM
- TGI (SF-268 CNS): 25.2 µM
- TGI (SF-295 CNS): 19.2 µM
- TGI (SF-539 CNS): 3.89 µM
- TGI (SK-MEL-2 melanoma): 22.2 µM
- TGI (SK-MEL-28 melanoma): 23.7 µM
- TGI (SK-MEL-5 melanoma): 7.24 µM
- TGI (SK-OV-3 ovarian): 23.9 µM
- TGI (SN12C renal): 10.2 µM
- TGI (SNB-19 CNS): 24.2 µM
- TGI (SNB-75 CNS): 20.1 µM
- TGI (SW-620 colon): 3.57 µM
- TGI (T-47D breast): 18.4 µM
- TGI (TK-10 renal): 11.3 µM
- TGI (U251 CNS): 4.89 µM
- TGI (UACC-257 melanoma): 12 µM
- TGI (UACC-62 melanoma): 17 µM
- TGI (UO-31 renal): 7.53 µM
